Experimental data as given in PubChem BioAssay AID2060604 (Molecular Pharmacology Branch, DTP, NCI, 2025).

System: 379773-124-R-J2-PDC complex spheroids, viability % test/control
Experiment: Anticancer human tumor 379773-124-R-J2-PDC patient-derived endometrial carcinoma cell line growth inhibition [CLK]
Details: for IC50: curve of first compound; for viability, T/C: stronger effect = lower value
Outline: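 Patient-derived tumor cells grown as complex spheroids with HUVEC endothelial cells and mesenchymal stem cells, treated with drug combinations. Concentrations descend in half-log steps from near clinical Cmax, or from 10 microM if Cmax unknown.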

[1] = second compound 0.0316 µM, first compound 0.0316 µM
[2] = second compound 0.0316 µM, first compound 0.1 µM
[3] = second compound 0.0316 µM, first compound 0.316 µM
[4] = second compound 0.0316 µM, first compound 1 µM
[5] = second compound 0.0316 µM, first compound 3.16 µM
[6] = second compound 0.0316 µM, first compound 10 µM
[7] = second compound 0.1 µM, first compound 0.0316 µM
[8] = second compound 0.1 µM, first compound 0.1 µM
[9] = second compound 0.1 µM, first compound 0.316 µM
[10] = second compound 0.1 µM, first compound 1 µM
[11] = second compound 0.1 µM, first compound 3.16 µM
[12] = second compound 0.1 µM, first compound 10 µM
[13] = second compound 0.316 µM, first compound 0.0316 µM
[14] = second compound 0.316 µM, first compound 0.1 µM
[15] = second compound 0.316 µM, first compound 0.316 µM
[16] = second compound 0.316 µM, first compound 1 µM
[17] = second compound 0.316 µM, first compound 3.16 µM
[18] = second compound 0.316 µM, first compound 10 µM
[19] = second compound 1 µM, first compound 0.0316 µM
[20] = second compound 1 µM, first compound 0.1 µM
[21] = second compound 1 µM, first compound 0.316 µM
[22] = second compound 1 µM, first compound 1 µM
[23] = second compound 1 µM, first compound 3.16 µM
[24] = second compound 1 µM, first compound 10 µM
[25] = second compound 3.16 µM, first compound 0.0316 µM
[26] = second compound 3.16 µM, first compound 0.1 µM
[27] = second compound 3.16 µM, first compound 0.316 µM
[28] = second compound 3.16 µM, first compound 1 µM
[29] = second compound 3.16 µM, first compound 3.16 µM
[30] = second compound 3.16 µM, first compound 10 µM
[31] = second compound 10 µM, first compound 0.0316 µM
[32] = second compound 10 µM, first compound 0.1 µM
[33] = second compound 10 µM, first compound 0.316 µM
[34] = second compound 10 µM, first compound 1 µM
[35] = second compound 10 µM, first compound 3.16 µM
[36] = second compound 10 µM, first compound 10 µM
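Further: compound exposure lasted seven days before the viability readout.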
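Wherever viability, T/C is given: 100% = DMSO vehicle control wells.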

## C#Cc1c(F)ccc2cc(O)cc(-c3ncc4c(N5CC6CCC(C5)N6)nc(OCC56CCCN5CC(F)C6)nc4c3F)c12 (centres undefined) + CNC(=O)c1ccc(Nc2nc(OC3CCCC3)c3c(-c4ccc5nc(C)oc5c4)c[nH]c3n2)c(OC)c1
Second compound 0.0316 µM
  IC50: > 10000 nM
Second compound 0.1 µM
  IC50: < 31.6 nM
Second compound 0.316 µM
  IC50: < 31.6 nM
Second compound 1 µM
  IC50: < 31.6 nM
Second compound 3.16 µM
  IC50: < 31.6 nM
Second compound 10 µM
  IC50: < 31.6 nM
[1]
  viability, T/C: 73.2%
[2]
  viability, T/C: 65%
[3]
  viability, T/C: 72.9%
[4]
  viability, T/C: 79.1%
[5]
  viability, T/C: 71.3%
[6]
  viability, T/C: 62%
[7]
  viability, T/C: 41.2%
[8]
  viability, T/C: 39%
[9]
  viability, T/C: 38.3%
[10]
  viability, T/C: 32.4%
[11]
  viability, T/C: 32.2%
[12]
  viability, T/C: 36%
[13]
  viability, T/C: 41%
[14]
  viability, T/C: 33.1%
[15]
  viability, T/C: 39%
[16]
  viability, T/C: 37.1%
[17]
  viability, T/C: 33.4%
[18]
  viability, T/C: 28.4%
[19]
  viability, T/C: 38.8%
[20]
  viability, T/C: 33%
[21]
  viability, T/C: 25.8%
[22]
  viability, T/C: 29.1%
[23]
  viability, T/C: 33.1%
[24]
  viability, T/C: 29%
[25]
  viability, T/C: 31.9%
[26]
  viability, T/C: 27.4%
[27]
  viability, T/C: 28.3%
[28]
  viability, T/C: 31.4%
[29]
  viability, T/C: 28%
[30]
  viability, T/C: 23.2%
[31]
  viability, T/C: 32.7%
[32]
  viability, T/C: 27.1%
[33]
  viability, T/C: 28%
[34]
  viability, T/C: 27.1%
[35]
  viability, T/C: 27.4%
[36]
  viability, T/C: 27.1%

## C=C(F)C(=O)N1CCN(c2nc(OCC3CCCN3C)nc3c2CCN(c2cccc4cccc(Cl)c24)C3)CC1CC#N (centres undefined) + CNC(=O)c1ccc(Nc2nc(OC3CCCC3)c3c(-c4ccc5nc(C)oc5c4)c[nH]c3n2)c(OC)c1
Second compound 0.0316 µM
  IC50: 2020 nM
Second compound 0.1 µM
  IC50: < 31.6 nM
Second compound 0.316 µM
  IC50: < 31.6 nM
Second compound 1 µM
  IC50: < 31.6 nM
Second compound 3.16 µM
  IC50: < 31.6 nM
Second compound 10 µM
  IC50: < 31.6 nM
[1]
  viability, T/C: 69.1%
[2]
  viability, T/C: 63.1%
[3]
  viability, T/C: 72.3%
[4]
  viability, T/C: 78%
[5]
  viability, T/C: 36.7%
[6]
  viability, T/C: 0.16%
[7]
  viability, T/C: 35.7%
[8]
  viability, T/C: 42.1%
[9]
  viability, T/C: 42.7%
[10]
  viability, T/C: 39.8%
[11]
  viability, T/C: 26.7%
[12]
  viability, T/C: 0.13%
[13]
  viability, T/C: 37.1%
[14]
  viability, T/C: 41.4%
[15]
  viability, T/C: 32.4%
[16]
  viability, T/C: 39%
[17]
  viability, T/C: 16.2%
[18]
  viability, T/C: 0.17%
[19]
  viability, T/C: 25.5%
[20]
  viability, T/C: 31.4%
[21]
  viability, T/C: 34.9%
[22]
  viability, T/C: 34.5%
[23]
  viability, T/C: 10.4%
[24]
  viability, T/C: 0.13%
[25]
  viability, T/C: 30.2%
[26]
  viability, T/C: 35.3%
[27]
  viability, T/C: 35.7%
[28]
  viability, T/C: 35%
[29]
  viability, T/C: 14.3%
[30]
  viability, T/C: 2.42%
[31]
  viability, T/C: 31.6%
[32]
  viability, T/C: 32.9%
[33]
  viability, T/C: 27.7%
[34]
  viability, T/C: 27.3%
[35]
  viability, T/C: 9.27%
[36]
  viability, T/C: 0.53%
